Measurements published in patent US20220127267A1, “THIENO[3,2-B] PYRROLE[3,2-D]PYRIDAZINONE DERIVATIVES AND THEIR USE AS PKM2 DERIVATIVES FOR THE TREATMENT OF CANCER, OBESITY AND DIABETES RELATED DISORDERS” (Agios Pharmaceuticals, Inc., priority 2019, published 2022).

Legend:
PKR K410E = PKR K410E (Homo sapiens, UniProt P30613, K410E); test: PKR Mutant Assay (K410E), LDH-coupled, absorbance 340 nm; type: biochemical; conditions: mutant PKR K410E enzyme activation
Description: (§1) PKR (WT or mutant) enzyme stock solution was diluted to prepare a 1.25× Reaction Mix (without ADP). 1 μL of test compound was first added to the wells followed by 40 μL of 1.25× Reaction Mix (without ADP) and incubated at room temperature (25° C.) for 60 min. The reaction was initiated with 10 μL ADP, bringing the final Reaction Mix to 1x, and the reaction progress was measured as changes in absorbance at 340 nm wavelength at room temperature.
(§2) Test compound preparation: Test compounds were prepared at 50× final concentration in DMSO. 1 to 3 dilutions were made for 11 points (for example 50 μL of 5000 μM compound was added to 100 μL 100% DMSO to yield a 1667 μM, 50 μL of this added to 100 μL DMSO to yield 556 μM, and so forth). The compounds were added to the assay as a 1 to 50 dilution (1 μL in 50 μL) to yield a top concentration of 100 μM, decreasing 3-fold for 11 points.
(§3) Reaction Mix: PKR (1.25-1000 ng/well, 0.025-20 μg/ml depending on the PKR mutant), ADP (0.05-2.3 mM depending on the PKR mutant), PEP (0.031-2 mM depending on the PKR mutant), NADH (180 μM), LDH (0.005 U/μL, Sigma #L3888), 1 mM DTT, 0.03% BSA in 1× Reaction Buffer
(§4) Reaction Buffer: 100 mM KCl, 50 mM Tris pH 7.5, 5 mM MgCl2.

PK R510Q = PK R510Q (Homo sapiens, UniProt P30613, R510Q); test: PKR Mutant Assay (R510Q), LDH-coupled, absorbance 340 nm; type: biochemical; conditions: mutant PKR R510Q enzyme activation
Description: as §1, §2, §3, §4

PKR WT = PKR WT (Homo sapiens, UniProt P30613); test: PKR enzyme assay (WT), LDH-coupled, absorbance 340 nm; type: biochemical; conditions: wild type PKR enzyme activation
Description: as §1, §2, §3, §4

RBCs = test: Cell Based ATP Assay in purified red blood cells (Cell-Titer-Glo); set-up: species or system human; conditions: wild type PKR, ATP levels in RBCs, overnight at 37° C.; for AC50: Homo sapiens, Erythrocyte
Description: Fresh blood drawn from healthy volunteers into K2EDTA tubes was collected. Whole blood was pelleted by spinning at 500 g for 10 minutes. The transfusion bag port was cut off Purecell leukocyte reduction neofilter (Fisher NC0267633) one (1) inch above filter. A 10 ml syringe barrel was attached to the remaining cut tubing attached to the neofilter. The plasma layer was removed from the pellet of the whole blood and the pellet was resuspended in 2× volume of phosphate buffered saline (PBS). 9 ml re-suspended blood cell pellet was transferred to a 10 ml syringe that was attached to the neofilter. The whole blood was allowed to gravity flow through filter until all fluid ran through upper tubing into a filter disc. The plunger was added to the syringe. The filter was inverted and air was plunged through the syringe filter system. A new 5 ml syringe was used to remove filtered RBCs from the bag by the syringe port. Purified RBCs were transferred to a 5 ml snap cap tube that had been incubated on ice. The 5 ml snap cap tube was spun at 500 g for 10 minutes at 15 C. Supernatant was aspirated and resuspended in AGAM (1×PBS, 1% glucose, 170 mg/L adenine, 5.25 g/L mannitol) at a density of 4×10^9 cells/mL.
For cell based ATP assays, the compound as described herein was prepared in 100% DMSO as a 10 mM stock. Serial dilutions (1:4) were performed in 96-well V-bottom storage plate and then added 1:100 to 96-well V-bottom plates containing AGAM. 10 μL/well of compound diluted in AGAM was added to black clear bottom assay plates. RBCs were diluted in AGAM media to a density of 1×10^7 cells/mL before added 90 μL/well to black clear bottom assay plates (final compound concentration at 0.1% DMSO concentration). Assay plates were sealed using aluminum foil seals and incubated overnight at 37° C. in a humidified chamber. ATP levels were read out using Cell-Titer-Glo (Promega).

PKM2 WT = PKM2 WT (Homo sapiens, UniProt P14618); test: PKM2 Assay, LDH-coupled, absorbance 340 nm; type: biochemical; conditions: wild type PKM2 enzyme activation
Description: as §1, with “PKM2” for “PKR (WT or mutant)”, “ADP (0.4 mM final concentration),” for “ADP,”
as §2
Reaction Mix: PKM2 (5 ng/well, 0.1 μg/ml), ADP (0.4 mM), PEP (0.11 mM), NADH (180 μM), LDH (0.005 U/μL, Sigma #L3888), 1 mM DTT, 0.03% BSA in 1×
as §4

Chain of PKR K410E (P30613 whole entry K410E): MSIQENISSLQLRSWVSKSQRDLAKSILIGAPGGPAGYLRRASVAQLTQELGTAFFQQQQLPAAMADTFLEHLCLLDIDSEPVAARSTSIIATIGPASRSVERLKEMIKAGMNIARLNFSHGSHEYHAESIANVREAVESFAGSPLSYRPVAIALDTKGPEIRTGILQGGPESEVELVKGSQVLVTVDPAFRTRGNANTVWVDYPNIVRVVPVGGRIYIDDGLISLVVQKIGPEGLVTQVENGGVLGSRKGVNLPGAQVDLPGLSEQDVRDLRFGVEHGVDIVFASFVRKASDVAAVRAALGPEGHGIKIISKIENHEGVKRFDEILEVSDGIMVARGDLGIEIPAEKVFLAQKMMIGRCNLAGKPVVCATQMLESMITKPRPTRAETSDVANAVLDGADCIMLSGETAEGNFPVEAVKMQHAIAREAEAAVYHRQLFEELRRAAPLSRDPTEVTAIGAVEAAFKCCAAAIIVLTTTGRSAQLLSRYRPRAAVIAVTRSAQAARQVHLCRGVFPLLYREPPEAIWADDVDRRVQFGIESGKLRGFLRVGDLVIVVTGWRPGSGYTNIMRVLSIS
Chain of PKR WT (P30613 whole entry): as the sequence (P30613 whole entry K410E) above, with E410K counted along it
Chain of PK R510Q (P30613 whole entry R510Q): as the sequence (P30613 whole entry K410E) above, with E410K, R510Q counted along it
Chain of PKM2 WT (P14618 whole entry): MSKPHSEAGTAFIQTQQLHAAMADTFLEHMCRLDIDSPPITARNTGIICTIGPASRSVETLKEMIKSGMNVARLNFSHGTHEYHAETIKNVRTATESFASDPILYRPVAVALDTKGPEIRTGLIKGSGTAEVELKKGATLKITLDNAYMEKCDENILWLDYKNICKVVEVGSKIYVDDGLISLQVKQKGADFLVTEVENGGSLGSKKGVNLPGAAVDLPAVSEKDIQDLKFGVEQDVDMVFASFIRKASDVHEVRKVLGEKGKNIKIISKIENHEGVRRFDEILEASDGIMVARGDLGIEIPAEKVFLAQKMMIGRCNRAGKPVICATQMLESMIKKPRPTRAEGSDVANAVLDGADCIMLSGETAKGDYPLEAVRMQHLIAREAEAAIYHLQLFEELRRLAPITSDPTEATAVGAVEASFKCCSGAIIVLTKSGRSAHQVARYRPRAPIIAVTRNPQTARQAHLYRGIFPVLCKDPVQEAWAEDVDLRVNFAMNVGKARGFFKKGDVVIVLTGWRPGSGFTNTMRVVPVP

SMILES | AC50 (PKR K410E) | AC50 (PK R510Q) | AC50 (PKR WT) | AC50 (PKM2 WT) | PK R510Q AC50 (PK R510Q) | PKR WT AC50 (PKR WT) | PKR K410E AC50 (PKR K410E) | AC50 (RBCs) | Cell based ATP assay AC50 (RBCs)
COc1cccc(Cn2ncc3c(c(C)n4cc(C)sc34)c2=O)c1 [Cpd 9] | < 300 nM | < 300 nM | < 300 nM |  |  |  |  | > 1000 nM | 
Cc1cccc(Cn2ncc3c4sc(Cc5ncco5)cc4n(C)c3c2=O)c1 [Cpd 5] | < 300 nM | < 300 nM | < 300 nM |  |  |  |  | ≤ 1000 nM | 
Cc1c2c(=O)n(Cc3cccc(N)n3)ncc2c2sc(Cc3cc[nH]n3)cn12 [Cpd 17] | < 300 nM | < 300 nM | < 300 nM |  |  |  |  | ≤ 1000 nM | 
Cc1c2c(=O)n(Cc3ccccn3)ncc2c2sc(Cc3cscn3)cn12 [Cpd 16] | < 300 nM | < 300 nM | < 300 nM |  |  |  |  | ≤ 1000 nM | 
Cc1c2c(=O)n(Cc3ccc4[nH]ncc4c3)ncc2c2sc(Cc3ccccn3)cn12 [Cpd 18] | < 300 nM | < 300 nM | < 300 nM |  |  |  |  | ≤ 1000 nM | 
COc1cccc(Cn2ncc3c(c(C#N)n4cc(C)sc34)c2=O)c1 [Cpd 11] | < 300 nM | < 300 nM | < 300 nM |  |  |  |  |  | No Fit
COc1cccc(Cn2ncc3c(c(C#CCO)n4cc(C)sc34)c2=O)c1 [Cpd 13] | 301 to 800 nM | 301 to 800 nM | 301 to 800 nM |  |  |  |  |  | No Fit
Cn1c2cc(Cc3cn[nH]c3)sc2c2cnn(Cc3cccc4[nH]ncc34)c(=O)c21 [Cpd 8] |  | < 300 nM | < 300 nM |  |  |  | No Fit | ≤ 1000 nM | 
Cn1c2cc(Cc3cscn3)sc2c2cnn(Cc3ccccn3)c(=O)c21 [Cpd 7] | < 300 nM | < 300 nM | < 300 nM |  |  |  |  | ≤ 1000 nM | 
COc1cccc(Cn2ncc3c(c(C(N)=O)n4cc(C)sc34)c2=O)c1 [Cpd 12] | < 300 nM | < 300 nM | < 300 nM |  |  |  |  | > 1000 nM | 
Cc1c2c(=O)n(Cc3ccn(C)n3)ncc2c2sc(CO)cn12 [Cpd 14] | < 300 nM | < 300 nM | < 300 nM |  |  |  |  | ≤ 1000 nM | 
Cc1c2c(=O)n(Cc3cccc(C#N)c3)ncc2c2sc(Cc3ncco3)cn12 [Cpd 19] | < 300 nM | > 800 nM | 301 to 800 nM |  |  |  |  | > 1000 nM | 
Cn1c2cc(Cc3cccc4cn[nH]c34)sc2c2cnn(Cc3cscn3)c(=O)c21 [Cpd 6] | < 300 nM | < 300 nM | < 300 nM |  |  |  |  | ≤ 1000 nM | 
COc1cccc(Cn2ncc3c(c(C(F)(F)F)n4cc(C)sc34)c2=O)c1 [Cpd 10] |  |  | < 300 nM |  | No Fit |  | No Fit |  | No Fit
Cc1c2c(=O)n(Cc3ccn(C)n3)ncc2c2sc(Cc3cc[nH]n3)cn12 [Cpd 15] | < 300 nM | < 300 nM | < 300 nM |  |  |  |  | ≤ 1000 nM | 

Second part, led by results:

AC50 (PKR K410E) | AC50 (PK R510Q) | AC50 (PKR WT) | AC50 (PKM2 WT) | PK R510Q AC50 (PK R510Q) | PKR WT AC50 (PKR WT) | PKR K410E AC50 (PKR K410E) | SMILES | AC50 (RBCs) | Cell based ATP assay AC50 (RBCs)
< 300 nM | < 300 nM | < 300 nM |  |  |  |  | Cn1c2ccc(S(=O)(=O)c3cc[nH]n3)cc2c2cnn(Cc3cccc(C(N)=O)c3)c(=O)c21 [Cpd 49] | ≤ 1000 nM | 
> 800 nM | > 800 nM | > 800 nM | 301 to 800 nM |  |  |  | COc1cccc(Cn2ncc3c4cc(Br)ccc4n(C)c3c2=O)c1 [Cpd 36] |  | 
301 to 800 nM | < 300 nM | 301 to 800 nM |  |  |  |  | Cn1c2cc(S(C)(=O)=O)ccc2c2cnn(Cc3cccc(C(N)=O)c3)c(=O)c21 [Cpd 53] | > 1000 nM | 
< 300 nM |  |  |  | No Fit | No Fit |  | COC(=O)c1ccc2c3cnn(Cc4cccc(OC)c4)c(=O)c3n(C)c2c1 [Cpd 40] |  | 
< 300 nM | < 300 nM | 301 to 800 nM |  |  |  |  | Cn1cc(S(=O)(=O)c2ccc3c4cnn(Cc5cccc(C(N)=O)c5)c(=O)c4n(C)c3c2)cn1 [Cpd 56] | > 1000 nM | 
301 to 800 nM | < 300 nM | 301 to 800 nM |  |  |  |  | COc1cccc(Cn2ncc3c4nn(Cc5ccccc5)cc4n(C)c3c2=O)c1 [Cpd 28] |  | 
> 800 nM | > 800 nM | > 800 nM |  |  |  |  | Cc1cn2c(s1)c(C)c1c(=O)n(Cc3cc[nH]n3)ncc12 [Cpd 22] |  | No Fit
 |  |  |  | No Fit | No Fit | Inhibition | COc1cccc(Cn2ncc3c4cccc(Br)c4n(C)c3c2=O)c1 [Cpd 33] |  | 
< 300 nM | < 300 nM | < 300 nM |  |  |  |  | Cn1ccc(Cn2ncc3c4cc(Cc5cscn5)ncc4n(C)c3c2=O)n1 [Cpd 67] | ≤ 1000 nM | 
> 800 nM | > 800 nM | > 800 nM |  |  |  |  | Cc1c2c(=O)n(Cc3ccn(C)n3)ncc2n2cc(CO)sc12 [Cpd 23] | > 1000 nM | 
> 800 nM | < 300 nM | 301 to 800 nM |  |  |  |  | Cn1c2cc(S(=O)(=O)c3cc[nH]n3)ccc2c2cnn(Cc3cccc(C(N)=O)c3)c(=O)c21 [Cpd 50] | > 1000 nM | 
< 300 nM | < 300 nM | < 300 nM |  |  |  |  | COc1cccc(Cn2ncc3c(c(Br)n4cc(C)sc34)c2=O)c1 [Cpd 68] | > 1000 nM | 
 |  |  |  | No Fit | No Fit | No Fit | COc1cccc(Cn2ncc3c4c(cnn4C)n(C)c3c2=O)c1 [Cpd 27] |  | 
< 300 nM | < 300 nM | < 300 nM |  |  |  |  | Cn1ccc(Cn2ncc3c4ccc(Cc5cscn5)cc4n(C)c3c2=O)n1 [Cpd 58] | ≤ 1000 nM | 
< 300 nM | < 300 nM | 301 to 800 nM |  |  |  |  | COc1cccc(Cn2ncc3c4ccc(C#N)cc4n(C)c3c2=O)c1 [Cpd 47] |  | 
< 300 nM | < 300 nM | 301 to 800 nM |  |  |  |  | Cn1cc(S(=O)(=O)c2ccc3c(c2)c2cnn(Cc4cccc(C(N)=O)c4)c(=O)c2n3C)cn1 [Cpd 55] | > 1000 nM | 
301 to 800 nM | < 300 nM | 301 to 800 nM |  |  |  |  | COc1cccc(Cn2ncc3c4ccncc4n(C)c3c2=O)c1 [Cpd 64] |  | 
< 300 nM | < 300 nM | 301 to 800 nM |  |  |  |  | Cn1c2cc(S(=O)(=O)c3ccccc3)ccc2c2cnn(Cc3cccc(C(N)=O)c3)c(=O)c21 [Cpd 54] | > 1000 nM | 
< 300 nM | < 300 nM | < 300 nM |  |  |  |  | Cc1c2c(=O)n(Cc3ccn(C)n3)ncc2n2cc(Cc3cc[nH]n3)sc12 [Cpd 24] | ≤ 1000 nM | 
< 300 nM | < 300 nM | < 300 nM |  |  |  |  | Cc1cn2c(C)c3c(=O)n(Cc4ccn(C)n4)ncc3c2s1 [Cpd 21] | ≤ 1000 nM | 
< 300 nM | < 300 nM | < 300 nM |  |  |  |  | Cc1c2c(=O)n(Cc3cscn3)ncc2c2sc(Cc3cccc4c[nH]nc34)cn12 [Cpd 20] | ≤ 1000 nM | 
> 800 nM | < 300 nM | 301 to 800 nM |  |  |  |  | Cn1c2ccc(S(=O)(=O)c3ccccc3)cc2c2cnn(Cc3cccc(C(N)=O)c3)c(=O)c21 [Cpd 57] | > 1000 nM | 
